Test results taken from article PMC3376194 (Pharmacogenetics and Genomics, 2012).
Where “and” joins values, the source holds several entries; their conditions need not be identical. Identical values can stand only once. Like-named read-outs stand apart in the source and are kept apart here. Each block holds one compound with its values, some of them ahead of it.

Tests used:
PGHS-1 [1] = conditions: cited from earlier work
wildtype human PGHS-1 [2] = biological target: T1, wildtype human PGHS-1 (Homo sapiens, UniProt P23219); test: Reversible COX inhibition by NS-398, substrate dependence of COX activity; format: biochemical; conditions: double reciprocal plot
T1 sequence (P23219 24-599): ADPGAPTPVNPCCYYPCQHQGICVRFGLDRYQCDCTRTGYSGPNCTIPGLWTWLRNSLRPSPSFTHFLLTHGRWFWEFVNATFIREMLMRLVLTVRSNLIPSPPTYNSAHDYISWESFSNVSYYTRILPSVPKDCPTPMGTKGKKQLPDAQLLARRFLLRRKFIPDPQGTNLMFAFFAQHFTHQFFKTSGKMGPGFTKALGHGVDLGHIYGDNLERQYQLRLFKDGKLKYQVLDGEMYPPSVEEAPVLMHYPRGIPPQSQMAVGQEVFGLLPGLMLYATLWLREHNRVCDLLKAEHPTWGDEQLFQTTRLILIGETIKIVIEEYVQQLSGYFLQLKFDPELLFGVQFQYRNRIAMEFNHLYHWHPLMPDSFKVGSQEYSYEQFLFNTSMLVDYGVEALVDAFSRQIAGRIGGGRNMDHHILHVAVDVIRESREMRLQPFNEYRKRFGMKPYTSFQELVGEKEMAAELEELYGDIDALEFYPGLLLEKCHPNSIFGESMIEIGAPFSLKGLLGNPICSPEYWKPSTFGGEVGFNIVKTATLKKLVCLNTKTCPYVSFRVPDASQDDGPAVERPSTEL

wildtype human PGHS-1 [3] = biological target: T1, wildtype human PGHS-1; test: COX kinetic parameters, oxygen uptake vs arachidonate; format: biochemical; conditions: read-out: COX Km (μM arachidonate), WT, 37 °C, 100 μM HOOH
PGHS-1 V481I variant [4] = biological target: T2, PGHS-1 V481I variant (Homo sapiens, UniProt P23219, V481I); test: as above; format: biochemical; conditions: read-out: COX Km (μM arachidonate), 0.025% Tween 20, 37 °C
T2 sequence (P23219 24-599 V481I): as the sequence (P23219 24-599) above, with V458I counted along it

[5] = biological target: T3, R108Q variant of human PGHS-1 (Homo sapiens, UniProt P23219, R108Q); test: as above; format: biochemical
T3 sequence (P23219 24-599 R108Q): as the sequence (P23219 24-599) above, with R85Q counted along it

PGHS-1 L237M variant [6] = biological target: T4, PGHS-1 L237M variant (Homo sapiens, UniProt P23219, L237M); test: as above; format: biochemical; conditions: read-out: COX Km (μM arachidonate), 0.025% Tween 20, 37 °C
T4 sequence (P23219 24-599 L237M): as the sequence (P23219 24-599) above, with L214M counted along it

[7] = biological target: T3, R108Q variant of human PGHS-1; test: Analysis of Ki and k2 values for aspirin; format: biochemical; conditions: 20 °C, aspirin potassium salt
PGHS-1 [8] = conditions: in blood ex vivo; cited from earlier work
wildtype human PGHS-1 [9] = biological target: T1, wildtype human PGHS-1; test: Timed preincubation with aspirin, decay of surviving COX activity; format: biochemical; conditions: WT; 37 °C; preincubation with 0.4-5.3 mM aspirin; average ± SD
PGHS-1 R53H variant = PGHS-1 R53H variant (Homo sapiens, UniProt P23219, R53H); test: as above; format: biochemical; conditions: 37 °C, preincubation with 0.4-5.3 mM aspirin, average ± SD
Chain of PGHS-1 R53H variant (P23219 24-599 R53H): as the sequence (P23219 24-599) above, with R30H counted along it

[10] = ingestion of 500-650 mg aspirin; cited from earlier work
[11] = biological target: T3, R108Q variant of human PGHS-1; test: Timed preincubation with aspirin, decay of surviving COX activity; format: biochemical
PGHS-1 V481I variant [12] = biological target: T2, PGHS-1 V481I variant; test: as above; format: biochemical; conditions: 37 °C, preincubation with 0.4-5.3 mM aspirin, average ± SD
ovine PGHS-1 = conditions: cited from earlier work
[13] = hydrolysis in blood; cited from earlier work
PGHS-1 L237M variant [14] = biological target: T4, PGHS-1 L237M variant; test: Timed preincubation with aspirin, decay of surviving COX activity; format: biochemical; conditions: 37 °C, preincubation with 0.4-5.3 mM aspirin, average ± SD
COX-1 = conditions: cited from earlier work

Type of COX inhibition (wildtype human PGHS-1 [2]): reversible, competitive inhibitor
SMILES: CS(=O)(=O)Nc1ccc([N+](=O)[O-])cc1OC1CCCCC1 [NS-398]
Antagonism of PGHS-1 inactivation by aspirin (PGHS-1 [1]): potent antagonist | Effect on COX catalysis (PGHS-1 [1]; even at low arachidonate levels): lack effect on COX catalysis

Km (wildtype human PGHS-1 [3]; 0.025% Tween 20): 1.5 ± 0.4 µM | Km (wildtype human PGHS-1 [3]; 0.165% Tween 20): 19.8 ± 3.7 µM | Km (PGHS-1 V481I variant [4]): 1.8 ± 0.2 µM | Elevated arachidonate Km compared to wildtype [5]: 1.9 fold | Km value above the wildtype value ([5]; 0.165% Tween 20): 50% | Km ([5]; read-out: COX Km (μM arachidonate), 0.025% Tween 20, 37 °C): 2.8 ± 0.4 µM | Km ([5]; read-out: COX Km (μM arachidonate), 0.165% Tween 20, 37 °C): 29.7 ± 3.3 µM | Increase in Km value vs wildtype ([5]; standard conditions): 86% | Km (PGHS-1 L237M variant [6]): 1.8 ± 0.3 µM
SMILES: CCCCC/C=C\C/C=C\C/C=C\C/C=C\CCCC(=O)O [arachidonate]

Decrease in k2 (rate constant for acetyl group transfer) vs wildtype [7]: 30% | Increase in Ki for aspirin vs wildtype [7]: 70% | k2/Ki as percent of that for wildtype [7]: 42%
SMILES: CC(=O)Oc1ccccc1C(=O)O [aspirin, acetylsalicylic acid]
IC50 (PGHS-1 [8]): 0.002 mM | Aspirin reactivity (relative), k2'/[aspirin] normalized to wildtype value (wildtype human PGHS-1 [9]): 1.00 ± 0.10 (n = 9) | Aspirin reactivity (relative), k2'/[aspirin] normalized to wildtype value (PGHS-1 R53H variant): 0.91 ± 0.07 (n = 9) p = 0.042 | Peak plasma aspirin level [10]: 30 to 80 µM | Time of plasma aspirin peak [10]: ~ 30 min | Lower aspirin reactivity compared to wildtype ([11]; R108Q vs wildtype): 60% | k2'/aspirin (≈ k2/Ki) as percent of the wildtype value ([11]; R108Q, 37 °C): 40% | Aspirin reactivity (relative), k2'/[aspirin] normalized to wildtype value ([11]; R108Q, 37 °C, preincubation with 0.4-5.3 mM aspirin, average ± SD): 0.40 ± 0.05 (n = 7) p = 0.0001 | Aspirin reactivity (relative), k2'/[aspirin] normalized to wildtype value (PGHS-1 V481I variant [12]): 0.82 ± 0.10 (n = 9) p = 0.001 | Aspirin reactivity (ovine PGHS-1; ovine PGHS-1, 30°C): 0.3 mM⁻¹ min⁻¹ | Ki (ovine PGHS-1; read-out: Ki for aspirin, PGHS-1 (ovine)): ~20 mM and 14 to 20 mM | t1/2 of aspirin in blood [13]: ~ 15 min | Aspirin reactivity (relative), k2'/[aspirin] normalized to wildtype value (PGHS-1 L237M variant [14]): 0.86 ± 0.05 (n = 9) p = 0.001

SMILES: O=C(O)c1ccccc1O [salicylic acid]
COX-1 inhibition (COX-1): negligible COX-1 inhibitor
